In ChEMBL document CHEMBL1151924, “Characterization of lassa virus cell entry inhibitors: determination of the active enantiomer by asymmetric synthesis” (Bioorg Med Chem Lett, 2009) one finds IC50 data, which are given here for 19 compounds.

The test system of one assay is Lassa virus. The assay is described as follows: Antiviral activity against LASV infected in human A549 cells. The assay is classed as functional, organism-based, Mammarenavirus lassaense.
Assay [1] is described as follows: Inhibition of JUNV envelope glycoprotein-mediated late endosomal pH-dependent membrane fusion by cell-cell fusion reporter assay. As to conditions: Mammarenavirus juninense; call rule not given here.
[2] abbreviates: Mammarenavirus lassaense, A549, read-out: IC50.

In general, IC50 refers to the point on the concentration scale where inhibition reaches its midpoint. Regarding `O=C(c1cc2ccccc2s1)N1CC(=O)N(Cc2ccc(Cl)cc2)C(Cc2ccccc2)C1` (configuration not stated), in the assay with Lassa virus (setting [2]), the 50% inhibitory concentration (IC50) worked out at 2100 nM.
The same measure, in the same setting: in the case of `Cc1ccc(CN2C(=O)CN(C(=O)c3ccc(C)cc3)CC2CCc2ccccc2)cc1` (configuration not stated) it was 1200 nM; in that of `COc1ccc(CN2C(=O)CN(C(=O)c3cc4ccccc4[nH]3)CC2CCc2ccccc2)cc1` (configuration not stated), 1700 nM.
In the case of `COc1ccc(CN2C(=O)CN(C(=O)c3cc4ccccc4o3)CC2CCc2ccccc2)cc1` (configuration not stated), the IC50 was 200 nM in assay [1] and 1000 nM in the assay on Lassa virus (setting [2]).
For the compound `Cc1ccc(CN2C(=O)CNC[C@@H]2Cc2ccccc2)cc1`, the IC50 entry with Lassa virus (a549) is reported as “Not Active”.
`Cc1ccc(CN2C(=O)CN(C(=O)c3cc4ccccc4o3)C[C@H]2Cc2ccccc2)cc1`: in the assay with Lassa virus (setting [2]), the IC50 came to 3000 nM.
`O=C(c1cc2ccccc2o1)N1CC(=O)N(Cc2cccc(C(F)(F)F)c2)C(Cc2ccccc2)C1` (configuration not stated): the 50% inhibitory concentration (IC50) in the assay on Lassa virus (setting [2]) is 1800 nM.
Still for that read-out and setting: under `COc1ccc(CN2C(=O)CN(C(=O)c3cc4ccccc4[nH]3)CC2Cc2ccccc2)cc1` (configuration not stated) stands 1200 nM; under `COc1ccc(C(=O)N2CC(=O)N(Cc3ccc(C)cc3)C(CCc3ccccc3)C2)cc1` (configuration not stated), 400 nM.
For the compound `COc1ccc(CN2C(=O)CN(C(=O)c3cc4ccccc4s3)CC2CCc2ccccc2)cc1` (configuration not stated), the half-maximal inhibitory concentration (IC50) in assay [1] was determined as 200 nM; in the assay with Lassa virus (setting [2]), 500 nM.
Take `Cc1ccc(CN2C(=O)CN(Cc3cc4ccccc4o3)C[C@@H]2Cc2ccccc2)cc1`: the IC50 with Lassa virus (setting [2]) was determined as 10000 nM.
As for `CCC1CN(C(=O)c2cc3ccccc3o2)CC(=O)N1Cc1cccc(C(F)(F)F)c1` (configuration not stated), the IC50 with Lassa virus (setting [2]) turned out to be 1600 nM.
For `CCC1CN(C(=O)c2cc3ccccc3[nH]2)CC(=O)N1Cc1cccc(C(F)(F)F)c1` (configuration not stated), the half-inhibitory concentration (IC50) in the assay on Lassa virus (setting [2]) was found to be 2400 nM.
Consider `O=C(c1cc2ccccc2o1)N1CCN[C@@H](Cc2ccccc2)C1`, for which, in the assay on Lassa virus (a549), the 50% inhibitory concentration (IC50) result is “Not Active”.
With `O=C(c1cc2ccccc2o1)N1CC(=O)N(Cc2ccc(Cl)cc2)C(Cc2ccccc2)C1` (configuration not stated), in the assay on Lassa virus (setting [2]), the half-maximal inhibitory concentration (IC50) worked out at 800 nM.
On the same count and under the same terms, in the case of `COc1ccc(CN2C(=O)CN(C(=O)c3cc4ccccc4o3)CC2Cc2ccccc2)cc1` (configuration not stated) it was 600 nM; in that of `Cc1ccc(CN2C(=O)CN(C(=O)c3cc4ccccc4o3)C[C@@H]2Cc2ccccc2)cc1`, 200 nM.
Regarding `Cc1ccc(CN2CCN(C(=O)c3cc4ccccc4o3)C[C@@H]2Cc2ccccc2)cc1`, the concentration for half-maximal inhibition (IC50) in the assay on Lassa virus (setting [2]) was found to be 3100 nM.
`Cc1ccc(CN2C(=O)CN(C(=O)c3cc4ccccc4o3)CC2Cc2ccccc2)cc1` (racemic): the 50% inhibitory concentration (IC50) came to 200 nM in assay [1] and 800 nM with Lassa virus (setting [2]).
